Measurements from the supplement of paper PMC3493320.

System: NCI-H295R
Assay: IC50 (antiproliferative, ATP content)
Conditions: 48 h
Procedure, shortened: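 Serum-free ITS-supplemented DMEM was used to seed 1500 adrenocortical carcinoma cells per well in 1536-well plates, which were cultured overnight. Eight final concentrations of each library compound, from 0.6 nM to 46 µM, were added by pin transfer, followed by 48 h at 37 °C in 5% CO2 and a CellTiter-Glo ATP read after 20 min at room temperature. Luminescence was set against vehicle and positive-control wells, and the IC50 was obtained by logistic curve fitting. Any compound with no concentration response was entered as above the top dose.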

Row | IC50 [µM] | Compound
1 | > 46 | C/C=C/C[C@@H](C)[C@@H](O)[C@H]1C(=O)N[C@@H](CC)C(=O)N(C)CC(=O)N(C)[C@@H](CC(C)C)C(=O)N[C@@H](C(C)C)C(=O)N(C)[C@@H](CC(C)C)C(=O)N[C@@H](C)C(=O)N[C@H](C)C(=O)N(C)[C@@H](CC(C)C)C(=O)N(C)[C@@H](CC(C)C)C(=O)N(C)[C@@H](C(C)C)C(=O)N1C
2 | > 46 | CC(=O)Nc1ccc(OCC(O)CNC(C)C)cc1 (stereo unspecified)
3 | > 46 | CC(=O)OCC1=C(C(=O)[O-])N2C(=O)[C@@H](NC(=O)CSc3ccncc3)[C@H]2SC1.[Na+]
4 | > 46 | CC(=O)Oc1c(C)c(C)c2c(c1C)CC[C@@](C)(CCC[C@H](C)CCC[C@H](C)CCCC(C)C)O2
5 | > 46 | F[Si-2](F)(F)(F)(F)F.[NH4+].[NH4+]
6 | > 46 | NC(=O)N1c2ccccc2CC(=O)c2ccccc21
7 | > 46 | CC(=O)OC[C@H]2O[C@@H](N1\N=C/C(=O)NC1=O)[C@H](OC(C)=O)[C@@H]2OC(C)=O
8 | > 46 | NC(=O)CC[C@@H](N)C(=O)O
9 | > 46 | COC(c1ccccc1)(c1ccccc1)[C@H](Oc1nc(C)cc(C)n1)C(=O)O
10 | > 46 | CCCNC(C)C(=O)Nc1c(C)csc1C(=O)OC.Cl (stereo unspecified)
11 | > 46 | CC(C(=O)O)c1ccc2c(c1)[nH]c1ccc(Cl)cc12 (stereo unspecified)
12 | > 46 | c1ccc2sc(SSc3nc4ccccc4s3)nc2c1
13 | > 46 | CCCCCCCCCCCC(=O)N(CCO)CCO
14 | > 46 | CC(=O)OCC1=C(C(=O)O)N2C(=O)[C@@H](NC(=O)Cc3ccccc3)[C@H]2SC1
15 | > 46 | O=C([O-])CC(O)C(=O)[O-].[Na+].[Na+] (stereo unspecified)
16 | > 46 | CS(=O)(=O)Nc1ccc([N+](=O)[O-])cc1Oc1ccccc1
17 | > 46 | COc1ccc(CCNC[C@H](O)c2ccc(O)cc2)cc1OC
18 | > 46 | CC(COc1ccccc1)N(CCCl)Cc1ccccc1 (stereo unspecified)
19 | > 46 | O=C([O-])COc1nn(Cc2ccccc2)c2ccccc12.[Na+]
20 | > 46 | O=C(NCCc1c[nH]c2ccccc12)c1cccnc1
21 | > 46 | Clc1ccc2nsnc2c1NC1=NCCN1

Row | IC50 [µM] | Compound
22 | > 46 | CCCCCCCCCCCCCCCCOP(=O)([O-])OCC[N+](C)(C)C
23 | > 46 | O=C([C@@H](N(C)[C@]([C@H](CCC4)N4C([C@@H](CC)N5)=O)=O)CC2=CC=CC=C2)N(CCC1=O)C(C1)C(N[C@H](C(OC(C)[C@H](NC(C6=NC=CC=C6O)=O)C5=O)=O)C3=CC=CC=C3)=O (stereo partly specified)
24 | > 46 | CC(S)C(=O)NCC(=O)O (stereo unspecified)
25 | > 46 | CCCCCc1ccc(C)cc1O
26 | > 46 | Nc1nc(=O)c2ncn(CCC(CO)CO)c2[nH]1
27 | > 46 | CC1(C)S[C@@H]2[C@H](NC(=O)[C@@H](NC(=O)N3CCNC3=O)c3ccccc3)C(=O)N2[C@H]1C(=O)[O-].[Na+]
28 | > 46 | CC(=O)OC[C@H]1O[C@@](COC(C)=O)(O[C@H]2O[C@H](COC(C)=O)[C@@H](OC(C)=O)[C@H](OC(C)=O)[C@H]2OC(C)=O)[C@@H](OC(C)=O)[C@@H]1OC(C)=O
29 | > 46 | C[Si](C)(C)O[Si](C)(C)C
30 | > 46 | COc1ccc(-c2cc(=O)c3c(O)cc(O[C@@H]4O[C@H](CO[C@@H]5O[C@@H](C)[C@H](O)[C@@H](O)[C@H]5O)[C@@H](O)[C@H](O)[C@H]4O)cc3o2)cc1O
31 | > 46 | N[C@@H](Cc1ccc(O)cc1)C(=O)O
32 | > 46 | CC(=O)OCC(CCn1cnc2cnc(N)nc21)COC(C)=O
33 | > 46 | COc1ccc(C(=O)NCc2ccc(OCCN(C)C)cc2)cc1OC.Cl
34 | > 46 | CS(=O)(=O)OCCCCOS(C)(=O)=O
35 | > 46 | COP(=O)(OC)OC(c1ccc(Cl)cc1)P(=O)(OC)OC (stereo unspecified)
36 | > 46 | CC(C)COC(=O)OCN1C(=O)CN(CCN2CC(=O)N(COC(=O)OCC(C)C)C(=O)C2)CC1=O
37 | > 46 | C[C@@H](CN(C)C)CN1c2ccccc2Sc2ccccc21.C[C@@H](CN(C)C)CN1c2ccccc2Sc2ccccc21.O=C(O)[C@@H](O)[C@@H](O)C(=O)O
38 | > 46 | C[C@]12CC[C@@H]3c4ccc(O)cc4CC[C@H]3[C@@H]1CC[C@@H]2OP(=O)(O)O
39 | > 46 | O=C(O)CP(=O)(O)O
40 | > 46 | Cc1cccc(C)c1NC(=O)CN1CCCCCC1
41 | > 46 | NC(=O)N[C@@H](CCC(=O)O)C(=O)O
42 | > 46 | [Na+].[O-]Cl

Row | IC50 [µM] | Compound
43 | > 46 | CN1CCN(C(c2ccccc2)c2ccccc2)CC1.Cl.Cl
44 | > 46 | COc1cc(O)cc(O)c1
45 | > 46 | O=C(Nc1ccc([N+](=O)[O-])cc1)Nc1ccc([N+](=O)[O-])cc1
46 | > 46 | NCC[C@H](O)C(=O)N[C@@H]1C[C@H](N)[C@@H](O[C@H]2O[C@H](CN)[C@@H](O)[C@H](O)[C@H]2O)[C@H](O)[C@H]1O[C@H]1O[C@H](CO)[C@@H](O)[C@H](N)[C@H]1O
47 | > 46 | O=C1O[C@H]([C@@H](O)CO)C(O)=C1O
48 | > 46 | C[N+](C)(C)CCOC(=O)CCC(=O)OCC[N+](C)(C)C.[Cl-].[Cl-]
49 | > 46 | Cc1ncc(C[n+]2csc(CCO)c2C)c(N)n1.Cl.[Cl-]
50 | > 46 | CC/C=C\C/C=C\C/C=C\C/C=C\C/C=C\CCCC(=O)O
51 | > 46 | CC(C)(C)NCC(O)c1ccc(O)c(CO)n1.Cl (stereo unspecified)
52 | > 46 | CN1[C@@H](CC(=O)c2ccccc2)CCC[C@H]1C[C@H](O)c1ccccc1
53 | > 46 | C/C(=N\Cc1ccccc1)c1ccccc1O
54 | > 46 | C=CC[N+]1([C@H]2C[C@H]3[C@@H]4CC[C@H]5C[C@H](O)[C@@H](N6CCOCC6)C[C@]5(C)[C@H]4CC[C@]3(C)[C@H]2OC(C)=O)CCCC1.[Br-]
55 | > 46 | O=c1[nH]cc(F)c(=O)[nH]1
56 | > 46 | NC(=O)Oc1ccc(Cc2ccccc2)cc1
57 | > 46 | CC(C)(C)C(=O)OCOC(=O)[C@@H]1N2C(=O)[C@@H](/N=C/N3CCCCCC3)[C@H]2SC1(C)C.Cl
58 | > 46 | COc1ccc(S(=O)(=O)N2c3ccc(Cl)cc3[C@@](O)(c3ccccc3Cl)[C@H]2C(=O)N2CCC[C@@H]2C(N)=O)cc1OC
59 | > 46 | O=C(CCCN1CCC(O)(c2ccc(Cl)cc2)CC1)c1ccc(F)cc1
60 | > 46 | NC(=O)c1ncn([C@@H]2O[C@H](CO)[C@@H](O)[C@H]2O)n1
61 | > 46 | CC(CN1c2ccccc2Sc2cccnc21)N(C)C.Cl (stereo unspecified)
62 | > 46 | CC(N)CCCC(C)(C)O.Cl (stereo unspecified)
63 | > 46 | O=C(N[C@@H](CO)C(N[C@H](C(N[C@H](COC(C)(C)C)C(N[C@@H](CC(C)C)C(N[C@@H](CCCNC(N)=N)C(N6[C@H]([C@@](NNC(N)=O)=O)CCC6)=O)=O)=O)=O)CC4=CC=C(O)C=C4)=O)[C@@H](NC([C@@H](N[C@@]([C@@H](N5)CCC5=O)=O)CC3=CNC=N3)=O)CC1=CNC2=C1C=CC=C2.O=C(C)O

Row | IC50 [µM] | Compound
64 | > 46 | Cl.c1ccc(CN(CC2=NCCN2)c2ccccc2)cc1
65 | > 46 | O=C(O)Cc1cn(-c2ccccc2)nc1-c1ccc(Cl)cc1
66 | > 46 | CCNC(=O)/C=C/c1cccc(Br)c1
67 | > 46 | CCC(Cc1c(I)cc(I)c(O)c1I)C(=O)O (stereo unspecified)
68 | > 46 | O=C(CCCN1CCN(c2ccccn2)CC1)c1ccc(F)cc1
69 | > 46 | CCCCOC(=O)CC(CC(=O)OCCCC)(OC(C)=O)C(=O)OCCCC
70 | > 46 | COc1cc(-c2ccc(=O)[nH]n2)ccc1OC(F)F
71 | > 46 | CCOC(=O)C1=C[C@@H](OC(CC)CC)[C@H](NC(C)=O)[C@@H](N)C1.O=C(O)C(O)C(O)C(=O)O
72 | > 46 | CCCCC(O)c1ccccc1 (stereo unspecified)
73 | > 46 | O=C([O-])CCCc1ccccc1.[Na+]
74 | > 46 | Cc1cccc(C)c1Nc1ncccc1C(=O)O
75 | > 46 | Cc1ccc(S(=O)(=O)NC(=O)NC2CCCCCCC2)cc1
76 | > 46 | Oc1ccc(Cl)c2c1CCC2
77 | > 46 | COc1ccccc1N1CCN(CCCC(=O)c2ccc(F)cc2)CC1
78 | > 46 | S=C=Nc1ccc(N=C=S)cc1
79 | > 46 | CCCCOC(=O)c1ccc(N)cc1
80 | > 46 | CCN(CC)CCNC(=O)COc1ccc(OC)cc1.Cl
81 | > 46 | CC[N+](C)(CC)CCOC(=O)C1c2ccccc2Oc2ccccc21.[Br-]
82 | > 46 | CN1CCCC(CC2c3ccccc3Sc3ccccc32)C1.Cl (stereo unspecified)
83 | > 46 | CC[N+](C)(CC)CCOC(=O)C(O)(c1ccccc1)C1CCCCC1.[Br-] (stereo unspecified)

Row | Compound | IC50 [µM]
84 | O=C(NCNC(=O)NC1C(=O)NC(=O)N1CO)NC1C(=O)NC(=O)N1CO (stereo unspecified) | > 46
85 | O=[N+]([O-])/N=C1\NCCN1Cc1ccc(Cl)nc1 | > 46
86 | CO/N=C(\C(=O)N[C@@H]1C(=O)N2C(C(=O)[O-])=C(C[n+]3cccc4c3CCC4)CS[C@H]12)c1csc(N)n1.O=S(=O)(O)O | > 46
87 | ClCc1ccccc1.O=C1C[C@@H]2OCC=C3CN4CC[C@]56c7ccccc7N1[C@H]5[C@H]2[C@H]3C[C@H]46 | > 46
88 | O[C@@H]3C\C4=C\C[C@@H]1[C@H](CC[C@]2(C)[C@@H](O)CC[C@@H]12)[C@@]4(C)CC3 | > 46
89 | O=C(NC(=O)c1c(F)cccc1F)Nc1cc(Cl)c(OC(F)(F)C(F)C(F)(F)F)cc1Cl (stereo unspecified) | > 46
90 | CC(CN(C)C)CN1c2ccccc2CCc2ccccc21.O=C(O)/C=C\C(=O)O (stereo unspecified) | > 46
91 | OC(c1ccccc1)(c1ccccc1)C1CCNCC1 | > 46
92 | CCC1(CC)C(=O)NC(=O)N(C)C1=O | > 46
93 | CN(C)C(=O)COC(=O)Cc1ccc(OC(=O)c2ccc(NC(=N)N)cc2)cc1.CS(=O)(=O)O | > 46
94 | CCNC(C)Cc1cccc(C(F)(F)F)c1 (stereo unspecified) | > 46
95 | Cl.Clc1ccc(C(OCCN2CCCCC2)c2ccccc2)cc1 (stereo unspecified) | > 46
96 | CCNC(=O)N(CCCN(C)C)C(=O)[C@@H]1C[C@@H]2c3cccc4N\C=C(\C[C@H]2N(C1)CC=C)c34 | > 46
